Tested on: mTOR
Experiment: Western blot for mTOR inhibition (S6K1 phosphorylation)
Format: cell-based
Details: immunoblot
Procedure: Screening of autophagy enhancer. […] Luciferase assay. Firefly and Renilla luciferase assays were conducted using the Dual-Luciferase Reporter Assay System (Promega) according to the manufacturer's recommendation. In brief, cells were lysed in 1× lysis buffer and subjected to a single round of freezing/thawing. Firefly luciferase was determined after mixing 5 μl of lysate with 25 μl of Luciferase Assay Reagent II. Renilla luciferase was then determined after further addition of 20 ul of Stop&Glo Reagent. Cell culture and media and drugs treatment. […] Cytotoxicity was determined by the measurement of LDH release in cell culture media using the LDH kit (Roche), according to the protocol from the manufacturer. […] Imaging and image quantification. […] Formation of acidic vesicular organelles was quantitated by staining the cells with acridine orange (Invitrogen, 5 ug/ml, 10 min). […] Cells or tissues were solubilized in lysis buffer supplemented with protease and phosphatase inhibitors and protein concentration was measured by the Bradford method. Ten to 30 micrograms were loaded on 4-12% Bis-Tris gel (NUPAGE, Invitrogen) or 8-15% SDS-PAGE, transferred to PVDF membranes and analyzed by western blot using the ECL method (Pierce). […] Protein levels were quantified by using ImageJ software analysis. […]

Structure (SMILES) | mTOR inhibition
COc1oc(-c2ccccc2Cl)nc1S(=O)(=O)c1ccccc1 [MSL-7, 2-(2-chlorophenyl)-5-methoxy-4-(phenylsulfonyl) oxazole] | without cellular toxicity or mTOR inhibition
CSc1oc(-c2ccccc2)nc1S(=O)(=O)c1ccc(F)cc1 [MSL] | does not involve mTOR inhibition

Reference: patent US10881642B2, “Autophagy enhancer and use thereof” (Industry-Academic Cooperation Foundation, Yonsei University, priority 2016, dated 2021)
